Measured values from patent US20070173535A1, “Oxadiazoles having antiproliferative activity” (priority 2002, published 2007).

What was measured:
Ovary = assay: NCI GI50 on tumor cells, ovary; format: cell-based, human; conditions: Ovary cell lines; NA = inactive products
Method: (§1) Biological assays were carried out at the National Cancer Institute according to known experimental protocols [(a) Monks A., Scudiero D., Skehan P., Shoemaker R., Paull K., Vistica D., Hose C., Langley J., Cronise P., Vaigro-Wolff A., Gray-Goodrich M., Campbell H., Mayo J., Boyd M., J. Natl. Cancer Inst., 83, 757-766 (1991). (b) Paull K. D., Shoemaker R. H., Hods L., Monks A., Scudiero D. A., Rubinstein L., Plowman J., Boyd M. R., J. Natl. Cancer Inst., 81, 1088-1092 (1989). (c) Boyd M. R., Paull K. D., Rubinstein L. R., Cytotoxic Anticancer Drugs: Models and Concept for Drug discovery, Valeriote F. A., Corbett T., Baker L., Eds., Kluwer Academic Publishers: Amsterdam, 1992, pp. 11].

Colon = assay: NCI GI50 on tumor cells, colon; format: cell-based, human; conditions: Colon cell lines; NA = inactive products
Method: as §1

SNC = assay: NCI GI50 on tumor cells, SNC; format: cell-based, human; conditions: SNC cell lines; NA = inactive products
Method: as §1

Kidney = assay: NCI GI50 on tumor cells, kidney; format: cell-based, human; conditions: Kidney cell lines; NA = inactive products
Method: as §1

Breast = assay: NCI GI50 on tumor cells, breast; format: cell-based, human; conditions: Breast cell lines; NA = inactive products
Method: as §1

[1] = tested on: MCF7 breast, NCI-H460 microcitoma and SF-268 SNC; assay: NCI preliminary tests on three cell lines, mean GI50; format: cell-based, human; conditions: mean concentration causing 50% inhibition of cell growth; N.A. = inactive in preliminary tests on three cell lines
Method: as §1
Table 1 reports the GI50, namely the mean concentration (μM) of substance which causes a 50% inhibition on the cell growth in preliminary tests carried out on three cell lines (MCF7 breast, NCI-H460 microcitoma and SF-268 SNC).

Prostate = assay: NCI GI50 on tumor cells, prostate; format: cell-based, human; conditions: Prostate cell lines; NA = inactive products
Method: as §1

Leukemia = assay: NCI GI50 on tumor cells, leukemia; format: cell-based, human; conditions: Leukemia cell lines; NA = inactive products
Method: as §1

Melanoma = assay: NCI GI50 on tumor cells, melanoma; format: cell-based, human; conditions: Melanoma cell lines; NA = inactive products
Method: as §1

[2] = tested on: 60 human tumor cell lines; assay: NCI primary screening on 60 human tumor cell lines, mean over various tumor cells; format: cell-based; conditions: for GI50 Mean: mean over the tumor cell panels, NA = inactive products; for antiproliferative activity: in words, in both cases (three-cell-line preliminary tests and various tumor cells)
Method: The cytotoxic activity of compounds (I) was evidenced in primary screening studies on 60 human tumor cell lines.
as §1

Microcitoma = assay: NCI GI50 on tumor cells, microcitoma; format: cell-based, human; conditions: Microcitoma cell lines; NA = inactive products
Method: as §1

`Cn1cc(-c2nnco2)c2ccc3ccccc3c21` [Im, 1-methyl-3-[[1,3,4]oxadiazol-2′-yl]-1H-benzo[g]indole] gave a GI50 (Ovary) of 41.6 µM, a GI50 (Colon) of 38.9 µM and a GI50 (SNC) of 23.9 µM. For the same compound, the GI50 (Kidney) was 20.8 µM, the GI50 (Breast) was 44.6 µM and the “GI50 μM) Mean” value [1] was 33.1 µM. For the same compound, the GI50 (Prostate) was 54.9 µM, the GI50 (Leukemia) was 54.9 µM and the GI50 (Melanoma) was 43.6 µM. The “GI50 Mean” value [2] was 33.1 µM and the GI50 (Microcitoma) was 17.7 µM.

Compound `c1ccc(-c2nnc(-c3c[nH]c4c3Cc3ccccc3-4)o2)cc1` [Ic, 3-[[1,3,4]oxadiazole-5′-phenyl-2′-yl]-1,4-dihydro-indeno[1,2-b]pyrrole] has a GI50 (Ovary) of 4.57 µM, a GI50 (Colon) of 1 µM and a GI50 (SNC) of 2.95 µM. For the same compound, the GI50 (Kidney) was 6.31 µM, the GI50 (Breast) was 3.16 µM and the “GI50 μM) Mean” value [1] was 2.9 µM. The GI50 (Prostate) was 4.78 µM, the GI50 (Leukemia) was 1.82 µM and the GI50 (Melanoma) was 2.34 µM. The antiproliferative activity [2] was “significant antiproliferative activity”, the “GI50 Mean” value [2] was 2.9 µM and the GI50 (Microcitoma) was 3.39 µM.

`c1ccc2c(c1)CCc1c(-c3nnco3)c[nH]c1-2` [Ie, 3-[[1,3,4]oxadiazol-2′-yl]-4,5-dihydro-1H-benzo[g]indole] gave a GI50 (Ovary) of 28.2 µM, a GI50 (Colon) of 25.7 µM and a GI50 (SNC) of 28.2 µM. For the same compound, the GI50 (Kidney) was 27.5 µM, the GI50 (Breast) was 27.5 µM and the “GI50 μM) Mean” value [1] was 26.6 µM. It also gave a GI50 (Prostate) of 32.3 µM, a GI50 (Leukemia) of 26.3 µM and a GI50 (Melanoma) of 28.8 µM. For the same compound, the “GI50 Mean” value [2] was 26.3 µM and the GI50 (Microcitoma) was 21.8 µM.

In the case of `c1ccc(-c2nnc(-c3c[nH]c4c3ccc3ccccc34)o2)cc1` [Il, 3-[[1,3,4]oxadiazole-5′-phenyl-2′-yl]-1H-benzo[g]indole], the GI50 (Ovary) is reported as 1.7 µM, the GI50 (Colon) is reported as 0.7 µM and the GI50 (SNC) is reported as 1.21 µM. For the same compound, the GI50 (Kidney) was 2.04 µM, the GI50 (Breast) was 0.6 µM and the “GI50 μM) Mean” value [1] was 1.28 µM. For the same compound, the GI50 (Prostate) was 1.28 µM, the GI50 (Leukemia) was 0.64 µM and the GI50 (Melanoma) was 2.71 µM. The antiproliferative activity [2] was “significant antiproliferative activity”, the “GI50 Mean” value [2] was 1.28 µM and the GI50 (Microcitoma) was 2.36 µM.

Work on `c1ccc2c(c1)ccc1c(-c3nnco3)c[nH]c12` [Ih, 3-[[1,3,4]oxadiazol-2′-yl]-1H-benzo[g]indole] yielded a GI50 (Ovary) of 38.9 µM, a GI50 (Colon) of 33.8 µM and a GI50 (SNC) of 32.3 µM. The GI50 (Kidney) was 38 µM, the GI50 (Breast) was 40 µM and the “GI50 μM) Mean” value [1] was 35.4 µM. For the same compound, the GI50 (Prostate) was 62.3 µM, the GI50 (Leukemia) was 44.6 µM and the GI50 (Melanoma) was 33.8 µM. The “GI50 Mean” value [2] was 35.4 µM and the GI50 (Microcitoma) was 22.3 µM.

With `c1ccc2c(c1)Cc1c(-c3nnco3)c[nH]c1-2` [Ia, 3-[[1,3,4]Oxadiazol-2′-yl]-1,4-dihydro-indeno[1,2-b]pyrrole] the GI50 (Ovary) was 81.2 µM, the GI50 (Colon) was 81.2 µM and the GI50 (SNC) was 86.7 µM. For the same compound, the GI50 (Kidney) was 67.3 µM, the GI50 (Breast) was 73.2 µM and the “GI50 μM) Mean” value [1] was 74.1 µM. For the same compound, the GI50 (Leukemia) was 79.7 µM, the GI50 (Melanoma) was 77.3 µM and the “GI50 Mean” value [2] was 74.1 µM. It also gave a GI50 (Microcitoma) of 57.8 µM.

`Cc1nnc(-c2c[nH]c3c2Cc2ccccc2-3)o1` [Ib, 3-[[1,3,4]oxadiazole-5′-methyl-2′-yl]-1,4-dihydro-indeno[1,2-b]pyrrole] gave a GI50 (Ovary) of 30.2 µM, a GI50 (SNC) of 75.8 µM and a GI50 (Kidney) of 91.2 µM. For the same compound, the GI50 (Breast) was 77.6 µM, the “GI50 μM) Mean” value [1] was 75.8 µM and the GI50 (Leukemia) was 81.3 µM. For the same compound, the GI50 (Melanoma) was 79.4 µM, the “GI50 Mean” value [2] was 75.8 µM and the GI50 (Microcitoma) was 93.3 µM.
